Assay results taken from article PMC8708274, “Unveiling the Membrane and Cell Wall Action of Antimicrobial Cyclic Lipopeptides: Modulation of the Spectrum of Activity” (Pharmaceutics, 2021).
Where two headings read alike, the source gives them in different places. Positions of bridges follow the written chain, without caps; N, C: chain ends. Non-standard residues stand in square brackets, D forms with d. Residues, ends and D or L forms follow the SMILES beside them. No end group written: not given here. *: point of attachment. Lauroyl = CCCCCCCCCCCC(=O)*; Decanoyl = CCCCCCCCCC(=O)*; Nonanoyl = CCCCCCCCC(=O)*; X1 = CC[C@H](C)CCCCC(=O)*; Nle = CCCC[C@H](N)C(=O)O; Dab = NCC[C@H](N)C(=O)O

Columns and labels:
[1] = tested on: Pseudomonas aeruginosa ATTC 27853; conditions: cited from earlier work
Method: C6 analogues are devoid of antibacterial effect both against Gram-positive and Gram-negative bacteria, with MICs higher than 32 μg·mL^−1. C8 analogues show some activity, especially against P. aeruginosa but not on Gram-positive S. aureus. […] For example, MIC of 4 μg·mL^−1 and 2 μg·mL^−1 against P. aeruginosa for spB-3 and spE-3 respectively are obtained, where ... || Figure 3 Comparative TEM micrographs of P. aeruginosa (left) and E. coli (right). Untreated bacteria (a,b); bacteria treated with polymyxin analogues at 1xMIC: P. aeruginosa with spB-3 (4 μg·mL^−1) (c), or with of spE-10 (1 μg·mL^−1) (e); E. coli treated with spB-3 (2 μg·mL^−1) (d) or spE-10 (8 μg·mL^−1) (f). Lipopeptides cause the alteration of the membranes, with blebs protruding, loss of membrane, clear cytoplasmic zones, and even ghost cells. Similar results are obtained with natural PxB ((g,h), this last one is adapted from (Rabanal et al. Sci. Rep. 2015).

[2] = tested on: Staphylococcus aureus ATTC 25923; conditions: cited from earlier work
Method: C6 analogues are devoid of antibacterial effect both against Gram-positive and Gram-negative bacteria, with MICs higher than 32 μg·mL^−1. C8 analogues show some activity, especially against P. aeruginosa but not on Gram-positive S. aureus. […] For example, MIC of 4 μg·mL^−1 and 2 μg·mL^−1 against P. aeruginosa for spB-3 and spE-3 respectively are obtained, where ... || Since some of the polymyxin analogues also have good activities against S. aureus, the effects on the cell morphology of this Gram-positive bacteria were determined.

S. aureus = experiment: Transmission electron microscopy of treated bacteria; format: cell-based, Staphylococcus aureus; conditions: 1xMIC, 120 min, tryptone water
Method: (§1) Then, 500 µL of this culture were added to 50 mL of tryptone water for a concentration of ≈10^8 bacteria·mL^−1. Aliquots of 10 mL were incubated with the lipopeptide at the desired concentration for 2 h at room temperature, and bacterial cells were collected by centrifugation (12,857 g, 20 min). Samples were fixed with 2.5% glutaraldehyde in phosphate buffer for 2 h at 4 °C, washed with the same buffer, and post fixed with 1% osmium tetroxide in buffer containing 0.8% potassium ferricyanide at 4 °C. Then, the samples were dehydrated for 1 h in acetone, infiltrated in a graded series of Epon resin (Ted pella, Inc., Redding, CA, USA) during 2 days, and finally embedded in fresh Epon resin and polymerized at 60 °C during 48 h. Ultrathin sections were obtained using a Leica Ultracut UCT ultramicrotome (Leica, Vienna, Austria) and mounted on Formvar-coated copper grids. Sections were stained with 2% aqueous uranyl acetate and lead citrate and examined in a JEM-1010 electron microscope (Jeol, Tokyo, Japan).

[3] = Kinetics of insertion into monolayers; format: binding, Salmonella enterica serotype Minnesota Re 595; conditions: initial pressure 32 mN·m^−1, peptide 0.48 μM, 25 min after injection, 10 mM Tris pH 7.4, 25 °C, average of three independent experiments (error < 10%)
Method: (§2) Monolayer studies were performed at room temperature (25 °C) on a monolayer system (NIMA Technology, Coventry, UK) by using a cylindrical PTFE (Teflon®, Wilmington, DE, USA) trough (5 cm diameter) containing a continuously stirred aqueous phase (12 mL, 10 mM Tris pH 7.4) and a Wilhelmy platinum plate connected to an electrobalance. The system was enclosed in a Plexiglass box to reduce surface contamination, and before each run, the plate and the trough were cleaned with hot water at >70 °C to avoid carryover of lipid or peptide. Monolayers of POPG, POPE/POPG (6:4), POPC, or LPS were formed by applying small drops of the lipid stock solutions in CHCl3 on the aqueous subphase with a microsyringe (Hamilton Co., Reno, NV, USA) to achieve a surface pressure of 32 mN·m^−1. After 10 min, allowing for solvent evaporation, a known aliquot of peptide was added without disturbance of the monolayer via an inlet port, and the surface pressure was continuously monitored.

[4] = tested on: Escherichia coli ATTC 25922; conditions: cited from earlier work
Method: Table 1 Sequences and antimicrobial activities of the synthesized peptides determined as minimal inhibitory concentration (MIC) calculated for different bacteria strains. | column: MIC/µg mL^−1 (µM) / EC ^1 || Figure 3 Comparative TEM micrographs of P. aeruginosa (left) and E. coli (right). Untreated bacteria (a,b); bacteria treated with polymyxin analogues at 1xMIC: P. aeruginosa with spB-3 (4 μg·mL^−1) (c), or with of spE-10 (1 μg·mL^−1) (e); E. coli treated with spB-3 (2 μg·mL^−1) (d) or spE-10 (8 μg·mL^−1) (f). Lipopeptides cause the alteration of the membranes, with blebs protruding, loss of membrane, clear cytoplasmic zones, and even ghost cells. Similar results are obtained with natural PxB ((g,h), this last one is adapted from (Rabanal et al. Sci. Rep. 2015).

[5] = Kinetics of insertion into monolayers; format: binding; conditions: 25 min after injection, 10 mM Tris pH 7.4, 25 °C, average of three independent experiments (error < 10%); for Increase in surface pressure (Δπ), POPE/POPG: POPE/POPG 6:4, initial pressure 32 mN·m^−1, peptide 0.48 μM; for Increase in surface pressure (Δπ), POPC / Increase in surface pressure (Δπ), POPG: initial pressure 32 mN·m^−1, peptide 0.48 μM
Method: as §2

[6] = tested on: Staphylococcus aureus ATTC 25923; format: cell-based
Method: (§3) The minimal peptide concentration required to prevent the growth of a given test organism was determined after incubation overnight at 37 °C and was defined as the MIC. Activity was determined in representative bacteria, Escherichia coli ATTC 25922, Pseudomonas aeruginosa ATTC 27853, and Staphylococcus aureus ATTC 25923, using the broth microdilution method. Serial-two-fold dilutions of peptide (from 0.06 to 32 μg/mL) were performed in Mueller–Hinton broth (MHB) culture medium in sterile 96-well polypropylene microtiter plates inoculated with a final concentration of 5 × 10^5 CFU·mL^−1 of bacteria in each well. Bacteria were in the pre-exponential phase. Each determination was done by triplicate. In order to be considered acceptable, the three MIC results have to differ in only in one well, and the result was always given as the higher of the three. Drug-free and microorganism-free wells were used as positive and negative controls, respectively. Bacterial growth was visually determined on the basis of turbidity.

[7] = tested on: Pseudomonas aeruginosa ATTC 27853; format: cell-based
Method: as §3

[8] = tested on: Escherichia coli ATTC 25922; format: cell-based
Method: as §3

[9] = tested on: fresh rabbit erythrocytes; experiment: Hemolysis assay; format: cell-based; conditions: 335 μM lipopeptide, 1 h at 37 °C, 10 mM Tris 80 mM NaCl pH 7.4, absorbance 540 nm, average of three independent experiments
Method: Hemolytic activity was evaluated on fresh rabbit erythrocytes collected in EDTA collection tubes, as previously described. Briefly, an erythrocite suspension in buffer (10 mM Tris, 80 mM NaCl pH 7.4) was obtained by centrifugation (three times, 10 min at 4000 rpm) and adjusted at an optical density of 1 at 540 nm. Aliquots of 200 µL were incubated for 1 h at 37 °C with the different lipopeptides in 96-well polypropylene microtiter plates and centrifuged (15 min, 5000 rpm). Lipopetide-induced hemolysis was determined by measuring the absorbance at 540 nm of released hemoglobin (Asample) in the supernatant. Each determination was done by triplicate, and as negative and positive controls, erythrocytes in buffer (A0%) and in distilled water (A100%) were employed, respectively. Hemolysis was calculated according the following equation: % hemolysis = 100 · (Asample − A0%/A100% − A0%).

E. coli = experiment: Transmission electron microscopy of treated bacteria; format: cell-based, Escherichia coli; conditions: 1xMIC, 2 h, room temperature, tryptone water
Method: as §1

P. aeruginosa = experiment: as above; format: cell-based, Pseudomonas aeruginosa; conditions: 1xMIC, 2 h, room temperature, tryptone water
Method: as §1

[10] = taken from the literature (analogues #37, #38, #39)
[11] = value in brackets, taken from the literature
[12] = broth microdilution, MHB, 5 × 10^5 CFU/mL, overnight 37 °C, triplicate, higher of the three
[13] = value in brackets, broth microdilution, MHB, overnight 37 °C, triplicate

Molecule	MIC PA [1, 10]	MIC PA [1, 11]	MIC SA [2, 10]	MIC SA [2, 11]	ultrastructural effect on S. aureus (TEM) (S. aureus)	Increase in surface pressure (Δπ), LPS [3]	MIC EC [4, 10]	MIC EC [4, 11]	Increase in surface pressure (Δπ), POPE/POPG [5]	Increase in surface pressure (Δπ), POPC [5]	Increase in surface pressure (Δπ), POPG [5]	MIC SA [6, 12]	MIC PA [7, 12]	MIC EC [8, 12]	MIC SA ([6]; ATTC 25923)	MIC PA ([7]; ATTC 27853)	MIC EC ([8]; ATTC 25922)	further results
Lauroyl-[Dab]T[Dab]C[Dab]F[Nle][Dab][Dab]C (disulfide 4-10 (inferred)) [spB-8, the C12/Nle7 derivative]	1 µg/mL	0.79 µM	2 µg/mL	1.58 µM	Even more disruptive effects	11.2 mN·m^−1	4 µg/mL	3.2 µM	6.2 mN·m^−1	1.7 mN·m^−1	3.8 mN·m^−1							
CC[C@H](C)CCCCC(=O)N[C@@H](CCN)C(=O)N[C@H](C(=O)N[C@@H](CCN)C(=O)N[C@H]1CCNC(=O)[C@H]([C@@H](C)O)NC(=O)[C@H](CCN)NC(=O)[C@H](CCN)NC(=O)[C@H](CC(C)C)NC(=O)[C@@H](Cc2ccccc2)NC(=O)[C@H](CCN)NC1=O)[C@@H](C)O [PxB, Polymyxin B, reference compound] (X1-[Dab]T[Dab][Dab][Dab][dF]L[Dab][Dab]T; lactam 4-C)						11.4 mN·m^−1			7.2 mN·m^−1	1.4 mN·m^−1	5.9 mN·m^−1	> 32 µg/mL	0.5 µg/mL	1 µg/mL				MIC SA [6, 13]: > 27 µM; MIC PA [7, 13]: 0.42 µM; MIC EC [8, 13]: 0.83 µM; hemolysis [9]: 18%
Decanoyl-[Dab]T[Dab]C[Dab]F[Nle][Dab][Dab]C (disulfide 4-10 (inferred)) [spB-7, Series II-PxB analogue, decanoyl, Nle in position 7]	1 µg/mL	0.81 µM	4 µg/mL	3.2 µM		9.3 mN·m^−1	2 µg/mL	1.6 µM	6.5 mN·m^−1	2.1 mN·m^−1	4.2 mN·m^−1							
Decanoyl-[Dab]T[Dab]C[Dab]FL[Dab][Dab]C (disulfide 4-10 (inferred)) [spB-3, the C10 analogue of PxB]	4 µg/mL	3.2 µM	8 µg/mL	6.5 µM	formation of spherical mesosome-like intracellular structures and membranous inclusion bodies together with deformation of the cell envelope	11.0 mN·m^−1	2 µg/mL	1.6 µM	6.0 mN·m^−1	2.0 mN·m^−1	6.2 mN·m^−1							ultrastructural effect on E. coli (TEM) (E. coli): extensive bleb formation; ultrastructural effect on P. aeruginosa (TEM) (P. aeruginosa): formation of blebs that protrude from the outer membrane
CCCCCCCCCCCC(=O)N[C@@H](CCN)C(=O)N[C@H](C(=O)N[C@@H](CCN)C(=O)N[C@H]1CSSC[C@H](C(N)=O)NC(=O)[C@H](CCN)NC(=O)[C@H](CCN)NC(=O)[C@H](CC(C)C)NC(=O)[C@@H](CC(C)C)NC(=O)[C@H](CCN)NC1=O)[C@@H](C)O [spE-4] (Lauroyl-[Dab]T[Dab]C[Dab][dL]L[Dab][Dab][dC]-NH2; disulfide 4-10)						11.4 mN·m^−1			9.1 mN·m^−1	2.1 mN·m^−1	5.8 mN·m^−1	8 µg/mL	1 µg/mL	8 µg/mL	6.5 µM	0.81 µM	6.5 µM	
CCCCCCCCC(=O)N[C@@H](CCN)C(=O)N[C@H](C(=O)N[C@@H](CCN)C(=O)N[C@H]1CSSC[C@H](C(N)=O)NC(=O)[C@H](CCN)NC(=O)[C@H](CCN)NC(=O)[C@H](CCCC)NC(=O)[C@@H](Cc2ccccc2)NC(=O)[C@H](CCN)NC1=O)[C@@H](C)O [spB-6] (Nonanoyl-[Dab]T[Dab]C[Dab][dF][Nle][Dab][Dab][dC]-NH2; disulfide 4-10)						10.8 mN·m^−1			5.0 mN·m^−1	0.4 mN·m^−1	6.0 mN·m^−1	16 µg/mL	1 µg/mL	2 µg/mL	13 µM	0.82 µM	1.6 µM	
